The target of one test is c-MET kinase (Homo sapiens (Human), UniProt P08581). As to the kind of experiment: Assay of small molecular compounds for inhibiting the activity of c-MET kinase (LANCE TR-FRET). The test is classed as biochemical. To be noted: read-out: CMET IC50. The essentials: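 Eleven final concentrations from 2500 nM down to 0.042 nM, in 4% DMSO, were tested against human c-MET (2× stock 2 nM), with compound and enzyme premixed for 5 min. The phosphorylation reaction used 4× stock of 400 nM ULight-JAK-1 peptide and 40 μM ATP for 60 min at room temperature, then stop and detection steps. TR-FRET percent inhibition against positive and negative controls gave the IC50.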
Sequence of c-MET kinase (P08581 25-1390): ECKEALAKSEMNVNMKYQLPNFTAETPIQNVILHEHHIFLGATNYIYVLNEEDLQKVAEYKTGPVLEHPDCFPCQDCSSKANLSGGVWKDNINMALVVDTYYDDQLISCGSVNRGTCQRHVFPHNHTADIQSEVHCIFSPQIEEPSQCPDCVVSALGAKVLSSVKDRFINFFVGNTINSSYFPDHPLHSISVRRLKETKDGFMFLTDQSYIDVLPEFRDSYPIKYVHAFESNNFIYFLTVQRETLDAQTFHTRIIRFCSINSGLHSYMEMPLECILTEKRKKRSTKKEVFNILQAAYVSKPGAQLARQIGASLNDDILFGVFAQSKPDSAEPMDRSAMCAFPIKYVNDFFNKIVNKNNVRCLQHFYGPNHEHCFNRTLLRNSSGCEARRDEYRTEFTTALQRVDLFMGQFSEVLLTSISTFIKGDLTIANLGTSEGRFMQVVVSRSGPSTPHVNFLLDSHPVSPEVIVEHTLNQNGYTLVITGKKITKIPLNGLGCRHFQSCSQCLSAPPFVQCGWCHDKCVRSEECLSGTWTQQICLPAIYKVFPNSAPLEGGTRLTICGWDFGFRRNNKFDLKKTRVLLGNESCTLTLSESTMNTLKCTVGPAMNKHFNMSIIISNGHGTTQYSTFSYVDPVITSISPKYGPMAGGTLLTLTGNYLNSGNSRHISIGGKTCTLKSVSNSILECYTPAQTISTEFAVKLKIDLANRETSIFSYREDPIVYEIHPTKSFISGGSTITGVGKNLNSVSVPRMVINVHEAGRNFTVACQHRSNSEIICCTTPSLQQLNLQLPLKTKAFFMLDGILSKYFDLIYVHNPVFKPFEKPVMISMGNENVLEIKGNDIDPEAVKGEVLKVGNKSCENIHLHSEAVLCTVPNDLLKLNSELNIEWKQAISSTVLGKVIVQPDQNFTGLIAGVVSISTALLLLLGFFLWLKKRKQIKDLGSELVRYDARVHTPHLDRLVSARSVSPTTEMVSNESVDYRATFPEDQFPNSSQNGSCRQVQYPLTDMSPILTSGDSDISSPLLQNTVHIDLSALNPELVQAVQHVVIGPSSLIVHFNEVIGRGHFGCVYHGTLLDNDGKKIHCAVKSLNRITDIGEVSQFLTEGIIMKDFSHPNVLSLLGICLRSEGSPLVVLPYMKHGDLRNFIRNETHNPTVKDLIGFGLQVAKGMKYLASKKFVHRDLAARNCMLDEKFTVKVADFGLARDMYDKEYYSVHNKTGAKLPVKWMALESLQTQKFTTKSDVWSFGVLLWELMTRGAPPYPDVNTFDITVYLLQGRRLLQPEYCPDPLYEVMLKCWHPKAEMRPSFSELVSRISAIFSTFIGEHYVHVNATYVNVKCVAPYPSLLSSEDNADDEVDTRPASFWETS

Another test deals with MER kinase (Homo sapiens (Human), UniProt Q12866). As to the kind of experiment: Assay of small molecular compounds for inhibiting the activity of MER kinase (LANCE TR-FRET). The test is classed as biochemical. In a few lines: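 LANCE TR-FRET readout of ULight-poly GT phosphorylation by MER kinase; compound final range 0.042-2500 nM, 3-fold steps, 5 min enzyme preincubation. Reaction 60 min at room temperature in the dark with substrate/ATP (4× at 200 nM/20 μM), 1% DMSO, then stopped and developed 60 min; IC50 by curve fit.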
Sequence of MER kinase (Q12866 21-999): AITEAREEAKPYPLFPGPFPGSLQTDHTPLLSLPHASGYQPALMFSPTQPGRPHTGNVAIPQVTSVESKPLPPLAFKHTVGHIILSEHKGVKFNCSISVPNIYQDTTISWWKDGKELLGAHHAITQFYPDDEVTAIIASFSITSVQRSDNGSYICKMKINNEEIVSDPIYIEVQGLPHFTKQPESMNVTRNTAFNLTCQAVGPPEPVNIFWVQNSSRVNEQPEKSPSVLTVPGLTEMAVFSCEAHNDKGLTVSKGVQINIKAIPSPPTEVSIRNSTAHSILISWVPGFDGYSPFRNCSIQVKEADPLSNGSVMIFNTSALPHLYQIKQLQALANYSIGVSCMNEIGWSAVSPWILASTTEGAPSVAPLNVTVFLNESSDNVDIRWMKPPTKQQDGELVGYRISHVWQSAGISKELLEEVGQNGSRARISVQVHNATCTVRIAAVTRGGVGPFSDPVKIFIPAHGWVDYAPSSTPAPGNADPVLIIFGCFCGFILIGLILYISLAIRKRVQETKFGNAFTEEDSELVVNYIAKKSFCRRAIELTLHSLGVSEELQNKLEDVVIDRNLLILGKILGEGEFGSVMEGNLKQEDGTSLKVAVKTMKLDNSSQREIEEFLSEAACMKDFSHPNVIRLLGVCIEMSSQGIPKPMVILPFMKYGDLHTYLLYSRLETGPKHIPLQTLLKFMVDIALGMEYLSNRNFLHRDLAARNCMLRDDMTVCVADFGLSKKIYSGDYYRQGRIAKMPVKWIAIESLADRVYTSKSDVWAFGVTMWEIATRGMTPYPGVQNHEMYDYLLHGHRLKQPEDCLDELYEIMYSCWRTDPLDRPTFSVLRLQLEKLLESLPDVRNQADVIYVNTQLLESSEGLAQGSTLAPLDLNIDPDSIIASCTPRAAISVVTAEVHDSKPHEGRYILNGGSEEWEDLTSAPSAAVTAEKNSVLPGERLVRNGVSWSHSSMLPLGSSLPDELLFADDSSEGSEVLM

The next test deals with Ba/F3-AXL cells. The test is described as follows: Assay for inhibiting the proliferation of Ba/F3-AXL cells (CCK-8). The format is cell-based. To be noted: 72 hours of incubation, medium with 100 ng/mL hGas6, CCK-8. Here is the method: The values were then imported into Graphpad Prism 5 software for curve fitting, and IC50 was calculated.

The structures appear in SMILES notation. Where only a bound is given, the exact number is not on record here.

Experimental findings from patent US12202835B2, “Substituted aromatic ring-linked dioxinoquinazolines and dioxinoquinolines as kinase inhibitors” (BEIJING SCITECH-MQ PHARMACEUTICALS LIMITED, priority 2018, dated 2025) are described below.

Usually IC50 stands for the midpoint of a concentration-inhibition curve. Take `CCOc1ccn(-c2ccc(F)cc2)c(=O)c1C(=O)Nc1ccc(Oc2ccnc3cc(OCCOC)c4c(c23)OCCO4)c(F)c1` [Example 36, N-(3-fluoro-4-((5-(2-methoxyethoxy)-2,3-dihydro-[1,4]dioxino[2,3-f]quinolin-10-yl)oxy)phenyl)-1-(4-fluorophenyl)-4-ethoxy-2-oxo-1,2-dihydropyridine-3-carboxamide]: the IC50 at c-MET kinase was not above 50 nM; at MER kinase, not above 50 nM; in the test on Ba/F3-AXL cells, less than 50 nM.
Consider `CCn1cc(C(=O)Nc2ccc(Oc3ccnc4cc(OC)c5c(c34)OCCO5)c(F)c2)c(=O)n(-c2ccc(F)cc2)c1=O` [Example 37, N-(3-fluoro-4-((5-methoxy-2,3-dihydro-[1,4]dioxino[2,3-f]quinolin-10-yl)oxy)phenyl)-3-(4-fluorophenyl)-1-ethyl-2,4-dioxo-1,2,3,4-tetrahydropyrimidine-5-carboxamide], for which the IC50 at c-MET kinase is not above 50 nM; on MER kinase it was not above 50 nM; in the test with Ba/F3-AXL cells, less than 50 nM.
As for `CCn1cc(C(=O)Nc2ccc(Oc3ccnc4cc(OCCCN5CCOCC5)c5c(c34)OCCO5)c(F)c2)c(=O)n(-c2ccc(F)cc2)c1=O` [Example 38, N-(3-fluoro-4-((5-(3-morpholinopropoxy)-2,3-dihydro-[1,4]dioxino[2,3-f]quinolin-10-yl)oxy)phenyl)-3-(4-fluorophenyl)-1-ethyl-2,4-dioxo-1,2,3,4-tetrahydropyrimidine-5-carboxamide], the IC50 at c-MET kinase is not above 50 nM; against MER kinase, not above 50 nM; in the test with Ba/F3-AXL cells, less than 50 nM.
Turning to `Cn1cc(C(=O)Nc2ccc(Oc3ccnc4cc(OCCCN5CCCCC5)c5c(c34)OCCO5)c(F)c2)c(=O)n(-c2ccc(F)cc2)c1=O` [Example 39, N-(3-fluoro-4-((5-(3-(piperidin-1-yl)propoxy)-2,3-dihydro-[1,4]dioxino[2,3-f]quinolin-10-yl)oxy)phenyl)-3-(4-fluorophenyl)-1-methyl-2,4-dioxo-1,2,3,4-tetrahydropyrimidine-5-carboxamide], the results for the IC50 on c-MET kinase, against MER kinase and in the test on Ba/F3-AXL cells were not above 50 nM, not above 50 nM and less than 50 nM, respectively.
Regarding `CC(C)n1cc(C(=O)Nc2ccc(Oc3ccnc4cc(OCCCN5CCCCC5)c5c(c34)OCCO5)c(F)c2)c(=O)n(-c2ccc(F)cc2)c1=O` [Example 40, N-(3-fluoro-4-((5-(3-(piperidin-1-yl)propoxy)-2,3-dihydro-[1,4]dioxino[2,3-f]quinolin-10-yl)oxy)phenyl)-3-(4-fluorophenyl)-1-isopropyl-2,4-dioxo-1,2,3,4-tetrahydropyrimidine-5-carboxamide], the IC50 at c-MET kinase is not above 50 nM; against MER kinase, not above 50 nM; in the test on Ba/F3-AXL cells it was less than 50 nM.
For the compound `CCn1cc(C(=O)Nc2ccc(Oc3ccnc4cc(OCCCN5CCCCC5)c5c(c34)OCCO5)c(F)c2)c(=O)n(-c2ccc(F)cc2)c1=O` [Example 41, N-(3-fluoro-4-((5-(3-(piperidin-1-yl)propoxy)-2,3-dihydro-[1,4]dioxino[2,3-f]quinolin-10-yl)oxy)phenyl)-3-(4-fluorophenyl)-1-ethyl-2,4-dioxo-1,2,3,4-tetrahydropyrimidine-5-carboxamide], the IC50 at c-MET kinase was not above 50 nM; against MER kinase, not above 50 nM; with Ba/F3-AXL cells, less than 50 nM.
On to `COCCOc1cc2nccc(Oc3ccc(NC(=O)c4cn(C)c(=O)n(-c5ccc(F)cc5)c4=O)cc3F)c2c2c1OCCO2` [Example 42, N-(3-fluoro-4-((5-(2-methoxyethoxy)-2,3-dihydro-[1,4]dioxino[2,3-f]quinolin-10-yl)oxy)phenyl)-3-(4-fluorophenyl)-1-methyl-2,4-dioxo-1,2,3,4-tetrahydropyrimidine-5-carboxamide], for which the IC50 on c-MET kinase was not above 50 nM; at MER kinase, not above 50 nM; in the test with Ba/F3-AXL cells, less than 50 nM.
For the compound `CC(C)n1cc(C(=O)Nc2ccc(Oc3ccnc4cc(OCCCN5CCC(C)(O)CC5)c5c(c34)OCCO5)c(F)c2)c(=O)n(-c2ccc(F)cc2)c1=O` [Example 94, N-(3-fluoro-4-((5-(3-(4-methyl-4-hydroxypiperidin-1-yl)propoxy)-2,3-dihydro-[1,4]dioxino[2,3-f]quinolin-10-yl)oxy)phenyl)-3-(4-fluorophenyl)-1-isopropyl-2,4-dioxo-1,2,3,4-tetrahydropyrimidine-5-carboxamide], the half-inhibitory concentration (IC50) was not above 50 nM at c-MET kinase, not above 50 nM against MER kinase and less than 50 nM with Ba/F3-AXL cells.
Regarding `COCCN(C)CCCOc1cc2nccc(Oc3ccc(NC(=O)c4cn(C(C)C)c(=O)n(-c5ccc(F)cc5)c4=O)cc3F)c2c2c1OCCO2` [Example 95, N-(3-fluoro-4-((5-(3-((2-methoxyethyl)(methyl)amino)propoxy)-2,3-dihydro-[1,4]dioxino[2,3-f]quinolin-10-yl)oxy)phenyl)-3-(4-fluorophenyl)-1-isopropyl-2,4-dioxo-1,2,3,4-tetrahydropyrimidine-5-carboxamide], the IC50 is not above 50 nM at c-MET kinase, not above 50 nM against MER kinase and less than 50 nM with Ba/F3-AXL cells.
On to `CC(C)n1cc(C(=O)Nc2ccc(Oc3ccnc4cc(OCCCN(C)C5CCC5)c5c(c34)OCCO5)c(F)c2)c(=O)n(-c2ccc(F)cc2)c1=O` [Example 96, N-(3-fluoro-4-((5-(3-((cyclobutyl)(methyl)amino)propoxy)-2,3-dihydro-[1,4]dioxino[2,3-f]quinolin-10-yl)oxy)phenyl)-3-(4-fluorophenyl)-1-isopropyl-2,4-dioxo-1,2,3,4-tetrahydropyrimidine-5-carboxamide], for which the IC50 at c-MET kinase is not above 50 nM; on MER kinase it was not above 50 nM; in the test on Ba/F3-AXL cells, less than 50 nM.
Regarding `Cn1cc(C(=O)Nc2ccc(Oc3ccnc4cc(OCCCN5CCOCC5)c5c(c34)OCCO5)cc2Cl)c(=O)n(-c2ccc(F)cc2)c1=O` [Example 98, N-(2-chloro-4-((5-(3-morpholinopropoxy)-2,3-dihydro-[1,4]dioxino[2,3-f]quinolin-10-yl)oxy)phenyl)-3-(4-fluorophenyl)-1-methyl-2,4-dioxo-1,2,3,4-tetrahydropyrimidine-5-carboxamide], the values for the 50% inhibitory concentration (IC50) on c-MET kinase, against MER kinase and in the test with Ba/F3-AXL cells were 50 to 500 nM, not above 50 nM and less than 50 nM, respectively.
For `COc1cc2nccc(Oc3ccc(NC(=O)c4cn(CCCO)c(=O)n(-c5ccc(F)cc5)c4=O)cc3F)c2c2c1OCCO2` [Example 99, N-(3-fluoro-4-((5-methoxy-2,3-dihydro-[1,4]dioxino[2,3-f]quinolin-10-yl)oxy)phenyl)-3-(4-fluorophenyl)-1-(3-hydroxypropyl)-2,4-dioxo-1,2,3,4-tetrahydropyrimidine-5-carboxamide] the same measures were not above 50 nM, not above 50 nM and less than 50 nM.
For `C=CCn1cc(C(=O)Nc2ccc(Oc3ccnc4cc(OC)c5c(c34)OCCO5)c(F)c2)c(=O)n(-c2ccc(F)cc2)c1=O` [Example 100, N-(3-fluoro-4-((5-methoxy-2,3-dihydro-[1,4]dioxino[2,3-f]quinolin-10-yl)oxy)phenyl)-3-(4-fluorophenyl)-1-allyl-2,4-dioxo-1,2,3,4-tetrahydropyrimidine-5-carboxamide] the same measures were not above 50 nM, not above 50 nM and less than 50 nM.
For `COc1cc2nccc(Oc3ccc(NC(=O)c4cn(CCF)c(=O)n(-c5ccc(F)cc5)c4=O)cc3F)c2c2c1OCCO2` [Example 101, N-(3-fluoro-4-((5-methoxy-2,3-dihydro-[1,4]dioxino[2,3-f]quinolin-10-yl)oxy)phenyl)-3-(4-fluorophenyl)-1-(2-fluoroethyl)-2,4-dioxo-1,2,3,4-tetrahydropyrimidine-5-carboxamide] the same measures were not above 50 nM, not above 50 nM and less than 50 nM.
As to `COc1cc2nccc(Oc3ccc(NC(=O)c4cn(CC(=O)O)c(=O)n(-c5ccc(F)cc5)c4=O)cc3F)c2c2c1OCCO2` [Example 104, 2-(5-((3-fluoro-4-((5-methoxy-2,3-dihydro-[1,4]dioxino[2,3-f]quinolin-10-yl)oxy)phenyl)carbamoyl)-3-(4-fluorophenyl)-2,4-dioxo-3,4-dihydropyrimidin-1(2H)-yl)acetic acid], the 50% inhibitory concentration (IC50) on c-MET kinase was not above 50 nM; against MER kinase, not above 50 nM; in the test on Ba/F3-AXL cells, more than 5000 nM.
Take `CCOc1ccn(-c2ccc(F)cc2)c(=O)c1C(=O)Nc1ccc(Oc2ccnc3cc(OCC4(N)CC4)c4c(c23)OCCO4)c(F)c1` [Example 105, N-(4-((5-((1-aminocyclopropyl)methoxy)-2,3-dihydro-[1,4]dioxino[2,3-f]quinolin-10-yl)oxy)-3-fluorophenyl)-4-ethoxy-1-(4-fluorophenyl)-2-oxo-1,2-dihydropyridine-3-carboxamide]: the figures for the 50% inhibitory concentration (IC50) at c-MET kinase, against MER kinase and in the test on Ba/F3-AXL cells were not above 50 nM, not above 50 nM and less than 50 nM, respectively.
As for `CC(C)n1cc(C(=O)Nc2ccc(Oc3ccnc4cc(OCC5(N)CC5)c5c(c34)OCCO5)c(F)c2)c(=O)n(-c2ccc(F)cc2)c1=O` [Example 106, N-(3-fluoro-4-((5-((1-aminocyclopropyl)methoxy)-2,3-dihydro-[1,4]dioxino[2,3-f]quinolin-1 0-yl)oxy)phenyl)-3-(4-fluorophenyl)-1-isopropyl-2,4-dioxo-1,2,3,4-tetrahydropyrimidine-5-carboxamide], the results for the half-maximal inhibitory concentration (IC50) on c-MET kinase, at MER kinase and in the test with Ba/F3-AXL cells were 50 to 500 nM, not above 50 nM and less than 50 nM, respectively.
For `CCOc1ccn(-c2ccc(C)cc2)c(=O)c1C(=O)Nc1ccc(Oc2ccnc3cc(OC)c4c(c23)OCCO4)c(F)c1` [Example 112, N-(3-fluoro-4-((5-methoxy-2,3-dihydro-[1,4]dioxino[2,3-f]quinolin-10-yl)oxy)phenyl)-2-oxo-4-ethoxy-1-(4-methylphenyl)-1,2-dihydropyridin-3-carboxamide] the same measures were not above 50 nM, not above 50 nM and less than 50 nM.
